US20090209565A1, “THERAPEUTIC AGENT FOR INFLAMMATORY BOWEL DISEASE” (priority 2006, published 2009)

Experiments:
[1] = test system: DSS-induced IBD model animals; assay: Actions of improving the clinical conditions in DSS-induced IBD model; format: in vivo, mice; details: for Change in length of the large intestine (Ratio to the no treatment group, %): C57BL/6N mice, 3% DSS Day 0-4, drug Day 4-10, determined Day 11, control 73.4
Experimental: This test was performed according to the method described in PEDIATRIC RESEARCH, Vol. 53, No. 1, 143 to 147, 2003. In particular, mice (6-week-old, C57BL/6N Jcl, CLEA Japan, Inc.) were divided into groups of eight mice each such that average body weight was the same in each group on Day 0. […] Determination was made on the next day of the last administration of each drug (Day 11). As the evaluation index, the length of the large intestine and the rate of body weight change from the first day of the test (Day 0) to the last day of the test (Day 11) were measured.

[2] = test system: intestinal epithelial cells; assay: Inhibition of apoptosis of large intestinal epithelial cells in TNBS-induced colitis; format: in vivo, mouse; details: TNBS-induced colitis large intestine, Giemsa staining, 1000 cells per segment; TNBS alone 40.0±3.0%
Experimental: Large intestine affected by TNBS-induced colitis was subjected to Giemsa staining to stain the nucleus, and apoptosis of the intestinal epithelial cells was investigated (FIG. 3). Cells showing cell shrinkage or nucleus fragmentation were taken as apoptoic cells. 1000 cells in each segment were observed under the microscope, and the ratio of apoptotic cells (the apoptosis induction rate) was calculated (FIG. 4).

SD rats = details: 2000 mg/kg single oral dose in 0.5% HPMC, five male and five female SD rats
Experimental: 2000 mg/kg of Compound (1) was suspended in 0.5% HPMC solution, and orally administered at a single dose of 10 mL/kg to five male and five female SD rats (6-week-old).

[3] = Compound 100, prednisolone 5, 5-ASA 100 mg/kg/day

SMILES | Change in length of the large intestine (Ratio to the no treatment group, %) [1, 3] [%] | ratio of apoptotic cells (apoptosis induction rate) [2] [%] | death (SD rats) | weight loss (rate of body weight change from first day to determination day) ([1]; Day 0 to Day 11, printed as loss, prednisolone 5, 5-ASA 100 mg/kg/day, control loss 1.7±1.8) [%] | Rate of body weight change (%, Mean ± SE) ([1]; Day 0 to Day 11, Compound 100, prednisolone 5, 5-ASA 100 mg/kg/day, control −1.7 ± 1.8, no treatment 3.7 ± 1.5) [%]
C[C@]12C=CC(=O)C=C1CC[C@@H]1[C@@H]2[C@@H](O)C[C@@]2(C)[C@H]1CC[C@]2(O)C(=O)CO [Prednisolone, prednisolone] | 93.2 |  |  |  | 
N=C1CCCN1Cc1[nH]c(=O)[nH]c(=O)c1Cl [Compound (I), 5-chloro-6-(2-iminopyrrolidin-1-yl)methyl-2,4(1H,3H)-pyrimidinedione] | 88.6 | 26.0±5.0 |  |  | 
Cl.N=C1CCCN1Cc1[nH]c(=O)[nH]c(=O)c1Cl [Compound (1), 5-chloro-6-(2-iminopyrrolidin-1-yl)methyl-2,4(1H,3H)-pyrimidinedione hydrochloride] | 88.6 |  | no case of death |  | 
Nc1ccc(O)c(C(=O)O)c1 [Compound 5-ASA, 5-aminosalycilic acid] | 80.3 |  |  | 5.0±0.3 | −5.0 ± 0.3
